In brackets after ≈: the same amount, converted by molar mass. Like-named read-outs stand apart in the source and are kept apart here.
What was measured:
[1] = system: KRAS G12V-dependent Ba/F3 cells; experiment: Ba/F3 proliferation assay, KRAS G12V; assay type: cell-based; conditions: AlamarBlue;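 further: proliferation IC50 in KRAS G12V-dependent Ba/F3 cells read by AlamarBlue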
Outline: (§1)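 Proliferation of mutant-KRAS-driven Ba/F3 cells cultured without IL-3 is followed with AlamarBlue after compound addition. Curves are fitted from duplicate wells.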

[2] = system: KRAS G12D-dependent Ba/F3 cells; experiment: Ba/F3 proliferation assay, KRAS G12D; assay type: cell-based; conditions: AlamarBlue
Outline: as §1

KRAS (G12D)::SOS1 = KRAS (G12D)::SOS1 (Homo sapiens (Human), UniProt P01116, G12D); experiment: KRAS::SOS1 AlphaScreen binding assay, KRAS G12D
Outline: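 Compounds (up to 100 μM, eleven fivefold dilutions in duplicate) were incubated 30 min with KRAS 1-169 (10 nM, or 7.5 nM for G12C), GST-SOS1 564-1049 (5 nM for G12D/G12C, 10 nM for others) and 10 μM GDP in PBS buffer with BSA and Tween. Donor/acceptor beads were then added for 60 min at room temperature, and IC50 came from a 4-parameter fit of the AlphaScreen signal.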

[3] = Solubility measurement (DMSO solution method), McIlvaine buffer pH 4.5 or 6.8; assay type: physicochemical; conditions: DMSO stock diluted to 250 μM, 24 h shaking at ambient temperature; for solubility at 24 h: aqueous buffer, kinetic from dmso stock
Outline: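 Filtrate concentration by LC-UV, calibrated to a known-concentration reference dissolved completely in acetonitrile/water (1:1). Samples came from 250 µM final dilutions of DMSO stock in pH 4.5 or 6.8 McIlvaine buffer, shaken 24 h at ambient temperature, then filtered.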

[4] = McIlvaine buffer pH 4.5, read-out: solubility pH 4.5
[5] = McIlvaine buffer pH 6.8, read-out: solubility pH 6.8

Chain of KRAS (G12D)::SOS1 (P01116 other isoform, or with tags, fused parts or gaps G12D): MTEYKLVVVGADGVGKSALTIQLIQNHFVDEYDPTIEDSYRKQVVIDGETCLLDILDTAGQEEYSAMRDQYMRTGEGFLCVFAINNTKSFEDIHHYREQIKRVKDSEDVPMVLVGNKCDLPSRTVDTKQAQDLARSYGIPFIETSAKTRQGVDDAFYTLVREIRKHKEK

SMILES | IC50 ([1]; Mus musculus, BaF3, 72 h) [nM] | IC50 ([2]; Mus musculus, BaF3, 72 h) [nM] | IC50 (KRAS (G12D)::SOS1) [nM] | solubility at 24 h [3, 4] [µg/mL] | solubility at 24 h [3, 5] [µg/mL] | IC50 ([1]; 72 h) [nM] | IC50 ([2]; 72 h) [nM] | solubility pH 4.5 ([3]; McIlvaine buffer pH 4.5) [μg/ml] | solubility pH 6.8 ([3]; McIlvaine buffer pH 6.8) [μg/ml]
CO[C@H]1CCN(C)[C@@H]1[C@H](C)Oc1cc(N2CCN(C)C3(CC3)C2)nc(-c2noc3c2CCC[C@@]32CCCc3sc(N)c(C#N)c32)n1 [II-186] | 321 | 12 | 1 | > 140 | 22 (≈ 34.1 µM) | – | – | – | –
CO[C@@H]1C[C@@H]([C@H](C)Oc2cc(N3CCNC4(CC4)C3)nc(-c3noc4c3CCC[C@@]43CCCc4sc(N)c(C#N)c43)n2)N(C)C1 [II-187] | 225 | 3 | 1 | > 140 | 119 (≈ 189 µM) | – | – | – | –
C[C@H](Oc1cc(-n2ccc(C3(O)COC3)n2)nc(-c2noc3c2CCC[C@@]32CCCc3sc(N)c(C#N)c32)n1)[C@@H]1CCCN1C [II-189] | 8 | 28 | 2 | > 152 | 103 (≈ 164 µM) | – | – | – | –
C[C@H](Oc1cc(-n2ccc(C(=O)N[C@@H]3CCOC3)n2)nc(-c2noc3c2CCC[C@@]32CCCc3sc(N)c(C#N)c32)n1)[C@@H]1CCCN1C [II-192] | 2 | 13 | 1 | 124 (≈ 185 µM) | 59 (≈ 88.1 µM) | – | – | – | –
C[C@H](Oc1cc(-n2ccc(C(=O)N[C@H]3CCOC3)n2)nc(-c2noc3c2CCC[C@@]32CCCc3sc(N)c(C#N)c32)n1)[C@@H]1CCCN1C [II-193] | – | – | 1 | – | – | 2 | 9 | 15 | <1
C[C@H](Oc1cc(-n2ccc(C(=O)N(C)C3COC3)n2)nc(-c2noc3c2CCC[C@@]32CCCc3sc(N)c(C#N)c32)n1)[C@@H]1CCCN1C [II-194] | 4 | 22 | 1 | 116 (≈ 173 µM) | 31 (≈ 46.3 µM) | – | – | – | –
COCCNC(=O)c1ccn(-c2cc(O[C@@H](C)[C@@H]3CCCN3C)nc(-c3noc4c3CCC[C@@]43CCCc4sc(N)c(C#N)c43)n2)n1 [II-195] | 2 | 14 | 1 | 131 (≈ 199 µM) | 71 (≈ 108 µM) | – | – | – | –
CO[C@H]1CCN(C)[C@@H]1[C@H](C)Oc1cc(-n2ccc(C(=O)N[C@@H](C)c3ccccn3)n2)nc(-c2noc3c2CCC[C@@]32CCCc3sc(N)c(C#N)c32)n1 [II-196] | 1 | 9 | 1 | 94 (≈ 128 µM) | < 1 | – | – | – | –
CO[C@H]1CCN(C)[C@@H]1[C@H](C)Oc1cc(-n2ccc(C(=O)N[C@@H]3CCOC3)n2)nc(-c2noc3c2CCC[C@@]32CCCc3sc(N)c(C#N)c32)n1 [II-197] | 1 | 6 | 1 | > 173 | 5 (≈ 7.14 µM) | – | – | – | –
CO[C@H]1CCN(C)[C@@H]1[C@H](C)Oc1cc(-n2ccc(C(=O)N[C@H]3CCOC3)n2)nc(-c2noc3c2CCC[C@@]32CCCc3sc(N)c(C#N)c32)n1 [II-198] | 1 | 4 | 1 | 12 (≈ 17.1 µM) | < 1 | – | – | – | –
CO[C@H]1CCN(C)[C@@H]1[C@H](C)Oc1cc(-n2ccc(C(=O)N(C)C3COC3)n2)nc(-c2noc3c2CCC[C@@]32CCCc3sc(N)c(C#N)c32)n1 [II-199] | 3 | 16 | 1 | > 163 | 9 (≈ 12.9 µM) | – | – | – | –
COCCNC(=O)c1ccn(-c2cc(O[C@@H](C)[C@@H]3[C@@H](OC)CCN3C)nc(-c3noc4c3CCC[C@@]43CCCc4sc(N)c(C#N)c43)n2)n1 [II-200] | 1 | 8 | 1 | > 163 | 4 (≈ 5.82 µM) | – | – | – | –
CO[C@H]1CCN(C)[C@@H]1[C@H](C)Oc1cc(-n2ccc(C(N)=O)n2)nc(-c2noc3c2CCC[C@@]32CCCc3sc(N)c(C#N)c32)n1 [II-201] | 1 | 18 | 2 | > 128 | 6 (≈ 9.53 µM) | – | – | – | –
C[C@H](Oc1cc(-n2cc3ccn([C@H]4CCOC4)c(=O)c3n2)nc(-c2noc3c2CCC[C@@]32CCCc3sc(N)c(C#N)c32)n1)[C@@H]1CCCN1C [II-202] | 6 | 56 | 1 | > 166 | 58 (≈ 83.6 µM) | – | – | – | –
C[C@H](Oc1cc(-n2cc3ccn([C@@H]4CCOC4)c(=O)c3n2)nc(-c2noc3c2CCC[C@@]32CCCc3sc(N)c(C#N)c32)n1)[C@@H]1CCCN1C [II-203] | 4 | 59 | 2 | > 159 | 65 (≈ 93.7 µM) | – | – | – | –
C[C@H](Oc1cc(-n2cc3ccn(C[C@H]4CCOC4)c(=O)c3n2)nc(-c2noc3c2CCC[C@@]32CCCc3sc(N)c(C#N)c32)n1)[C@@H]1CCCN1C [II-204] | 7 | 62 | 2 | 4 (≈ 5.65 µM) | 5 (≈ 7.06 µM) | – | – | – | –
C[C@H](Oc1cc(-n2cc3ccn(C4CCOCC4)c(=O)c3n2)nc(-c2noc3c2CCC[C@@]32CCCc3sc(N)c(C#N)c32)n1)[C@@H]1CCCN1C [II-206] | 3 | 63 | 1 | 17 (≈ 24 µM) | 2 (≈ 2.83 µM) | – | – | – | –
[2H]C([2H])([2H])N1C[C@H](F)C[C@H]1[C@H](C)Oc1cc(N2CCN(C([2H])([2H])[2H])C3(CC3)C2)nc(-c2noc3c2CCC[C@@]32CCCc3sc(N)c(C#N)c32)n1 [II-207] | 387 | 18 | 1 | > 134 | < 1 | – | – | – | –
C[C@H](Oc1cc(-n2ccc(-c3cn(C4CCOCC4)nn3)n2)nc(-c2noc3c2CCC[C@@]32CCCc3sc(N)c(C#N)c32)n1)[C@@H]1CCCN1C [II-210] | 2 | 23 | 1 | 5 (≈ 7.06 µM) | < 1 | – | – | – | –
C[C@H](Oc1cc(-n2ccc(-c3cn([C@@H]4CCOC4)nn3)n2)nc(-c2noc3c2CCC[C@@]32CCCc3sc(N)c(C#N)c32)n1)[C@@H]1CCCN1C [II-211] | 3 | 28 | 1 | 20 (≈ 28.8 µM) | 4 (≈ 5.77 µM) | – | – | – | –
C[C@H](Oc1cc(-n2ccc(-c3cn(CC4(C)COC4)nn3)n2)nc(-c2noc3c2CCC[C@@]32CCCc3sc(N)c(C#N)c32)n1)[C@@H]1CCCN1C [II-213] | 6 | 43 | 1 | 23 (≈ 32.5 µM) | 2 (≈ 2.83 µM) | – | – | – | –
CNC1CCN(c2cc(O[C@@H](C)[C@@H]3CCCN3C)nc(-c3noc4c3CCC[C@@]43CCCc4sc(N)c(C#N)c43)n2)CC1 [II-214] | 1360 | 1710 | 1 | > 121 | > 151 | – | – | – | –

Reference: patent publication US20240174690A1, “ANNULATED 2-AMINO-3-CYANO THIOPHENES AND DERIVATIVES FOR THE TREATMENT OF CANCER” (BOEHRINGER INGELHEIM INTERNATIONAL GMBH, priority 2021, published 2024)
